{"source": "patent US20030125337A1", "about": "“Inhibitors of multidrug transporters” (priority 1998, published 2003)", "key": {"[1]": {"molecular_target": "T1, NorA (Staphylococcus aureus, UniProt P0A0J7)", "T1 construct": "expressed in transfected cells; host or cells: Bacillus subtilis strain NA", "T1 sequence (P0A0J7 whole entry)": "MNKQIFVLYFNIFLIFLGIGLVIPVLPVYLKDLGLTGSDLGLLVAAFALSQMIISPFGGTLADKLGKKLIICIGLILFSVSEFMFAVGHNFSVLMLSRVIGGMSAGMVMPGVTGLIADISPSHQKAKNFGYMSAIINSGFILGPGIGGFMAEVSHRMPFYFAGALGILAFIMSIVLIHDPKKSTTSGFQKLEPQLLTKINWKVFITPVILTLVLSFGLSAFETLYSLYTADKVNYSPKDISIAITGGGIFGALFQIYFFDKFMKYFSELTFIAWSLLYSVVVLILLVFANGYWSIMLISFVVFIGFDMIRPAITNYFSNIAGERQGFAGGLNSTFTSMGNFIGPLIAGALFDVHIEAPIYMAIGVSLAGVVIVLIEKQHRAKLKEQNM", "test": "Screen of DiverSet library for reversing the resistance of B. subtilis strain NA to the NorA substrate ethidium bromide", "assay_type": "cell-based", "settings": "ranking or words", "protocol": "One library for the compounds identified in the present invention is DiverSet™ (ChemBridge Corp., Glenview, Ill.) The screening of this library consisting of 9,600 compounds, has been completed. The chemical library was screened for compounds effective, at concentrations of 20 μg/ml or less, in reversing the resistance of a specially created B. subtilis strain NA to the NorA substrate ethidium bromide. Although the present invention employed NorA as the multidrug transporter in the screening assays it will be understood by one of skill in the art that the compounds identified herein will likely have applicability to other multidrug transporters.\nIn an exemplary assay, in order to identify a candidate substance as an inhibitor of NorA, the B. subtilis strain NA may be used. […]\nThe DiverSet™ library of chemical compounds was screened for compounds effective, at concentrations of 20 μg/ml or less, in reversing the resistance of a specially created B. subtilis strain NA to the NorA substrate ethidium bromide. […] These three classes of compounds were evaluated using the activity data provided and the CoMFA fields generated to see if a 3D-QSAR relationship was present."}, "[2]": {"system": "Gram-negative and Gram-positive organisms", "settings": "generally, except staphylococci; cited from earlier work"}, "[3]": {"system": "most strains of the following organisms (Staphylococcus aureus, Staphylococcus epidermidis, various Gram negative bacteria)", "settings": "most strains of listed organisms; cited from earlier work"}, "[4]": {"settings": "in vivo; cited from earlier work"}, "[5]": {"system": "Streptococcus pneumoniae", "settings": "cited from earlier work"}, "[6]": {"system": "most (≧90%) strains of the following microorganisms (Acinetobacter Iwoffi ... Yersinia enterocolitica)", "settings": "most (≧90%) strains of listed microorganisms; cited from earlier work"}, "[7]": {"system": "most Gram negative microorganisms", "settings": "cited from earlier work"}, "[8]": {"system": "strain NA", "test": "Checkerboard synergy testing of inhibitors with ethidium, strain NA", "assay_type": "cell-based, B. subtilis", "settings": "for FIC index: combination with ethidium, strain NA, 18 h, synergy = FIC index <0.5", "protocol": "(§1) Synergy testing was performed with the strain NA by checkerboard titration in microtiter plates using two-fold serial broth microdilution (Eliopoulus and Moellering Jr., 1996). […] Wells were assessed visually for growth after an 18 h incubation period. The Fractional Inhibitory Concentration (FIC) was calculated for each inhibitor and ethidium combination. The following formulae were used to calculate the FIC index: [drawing 43]\nSynergy was defined as an FIC index of <0.5."}, "[9]": {"system": "HeLa cell line", "test": "Toxicity on HeLa cell line, Cell Titer 96 AQueous MTS-based assay", "set-up": "species or system human", "settings": "for Selectivity Index (Toxicity HeLa/Effectivity): HeLa IC50 / S. aureus effectivity IC50; for IC50: Homo sapiens, 72 h, HeLa, read-out: Toxicity HeLa IC50", "protocol": "Here the inventors proposed to test the toxicity of the identified lead compounds on several human cell lines. To date, the inventors have determined the IC50 of the lead compounds for the HeLa cell line, the results of which are presented in Table 6. The toxicity of the compounds at concentrations ranging from 0.7 μg/ml to 100 μμg/ml was determined in a 96 well plate by adding the compounds to cells 24 h after seeding at a density of 10^4 per well. After incubation with the compounds for 3 days the effect on cell growth was determined using the Cell Titer 96 AQueous MTS-based assay (Promega, Madison, Wis.)."}, "[10]": {"system": "wild type S. aureus SA1199", "assay_type": "cell-based", "settings": "INF inhibitors 5 μg/ml, reserpine 20 μg/ml; for Frequency of emergence of variants resistant to two fold the MIC of ciprofloxacin, Spontaneous: SA1199, ciprofloxacin 1 μg/ml, 48 h; for Frequency of emergence of variants resistant to two fold the MIC of ciprofloxacin, Mutagenized: SA1199 mutagenized with ethylmethane sulfonate; for Fold inhibition of emergence of resistance: ciprofloxacin resistance, SA1199", "protocol": "The effect of the inhibitors on the rate of emergence of in vitro selected single-step ciprofloxacin resistant mutants of wild type S. aureus SA1199 (Kaatz et al., 1990) was determined.\nCiprofloxacin resistance in first step in vitro selected mutants of S. aureus is predominantly due to specific point mutations in the targets of this drug, topoisomerase IV and gyrase (Cambau and Gutman, 1993; Ferrero et al., 1994)."}, "[11]": {"system": "NA strain", "test": "Checkerboard synergy testing of inhibitors with ciprofloxacin, NA strain", "assay_type": "cell-based, B. subtilis", "settings": "combination with ciprofloxacin", "protocol": "as §1\n(§2) The inventors have quantitated the effects of the combination of the NorA inhibitors with ciprofloxacin, currently the most widely used fluoroquinolone and the second most prescribed antibiotic. Synergy testing was performed by checkerboard titration as described above for ethidium. […] All five compounds acted in a synergistic manner with ciprofloxacin, having FIC indices <0.5 (see Table 4). The inventors concluded that, similarly to their effects on the bacteriotoxicity of ethidium, each of the tested NorA inhibitors promotes the bacteriotoxicity of ciprofloxacin in a synergistic manner."}, "[12]": {"system": "S. aureus (SA1199B)", "test": "Minimal inhibitor concentration decreasing the ciprofloxacin MIC two fold, S. aureus SA1199B", "assay_type": "cell-based", "settings": "Staphylococcus aureus, read-out: Effectivity IC50* S. Aureus"}, "[13]": {"system": "S. aureus strain SA1199B", "test": "Checkerboard synergy testing of inhibitors with ciprofloxacin, S. aureus SA1199B", "assay_type": "cell-based", "settings": "combination with ciprofloxacin", "protocol": "as §1, §2"}, "[14]": {"system": "most strains of certain other organisms (Gram negative aerobes)", "settings": "most strains of listed Gram negative aerobes; cited from earlier work"}, "[15]": {"system": "S. pneumoniae (SPC2A)", "test": "Minimal inhibitor concentration decreasing the ciprofloxacin MIC two fold, S. pneumoniae SPC2A", "assay_type": "cell-based", "settings": "Streptococcus pneumoniae, read-out: IC50 S. Pneumoniae"}, "[16]": {"settings": "SPC2A, minimal concentration required to decrease the MIC for ciprofloxacin by two fold, N.A. = not active at 5 μg/ml"}}, "note": "Like-named read-outs stand apart in the source and are kept apart here."}
{"smiles": "O=c1nc(SCc2ccccc2)[nH]c(O)c1C(c1ccccc1)c1ccccc1", "note": "[compound 41]", "values": [{"measurement": "relative inhibitory activity in the initial screening", "setting": "[1]", "result": "most active lead compound in this category"}]}
{"smiles": "CCn1cc(C(=O)O)c(=O)c2cc(F)c(N3CCNC(C)C3)c(F)c21", "note": "(stereo not shown) [lomefloxacin]", "values": [{"measurement": "factor by which MBC exceeds MIC", "setting": "[2]", "result": "≤ 2"}, {"measurement": "in vitro MICs", "setting": "[3]", "result": "≤ 2", "unit": "µg/mL"}]}
{"smiles": "O=C(O)c1cn(C2CC2)c2cc(N3CCNCC3)c(F)cc2c1=O", "note": "[ciprofloxacin]", "values": [{"measurement": "achievable tissue concentration", "setting": "[4]", "result": 4, "unit": "µg/mL"}, {"measurement": "MIC90", "setting": "[5]", "result": "1 to 2", "unit": "µg/mL"}, {"measurement": "in vitro minimal inhibitory concentrations (MICs)", "setting": "[6]", "result": "≤ 1", "unit": "µg/mL"}, {"measurement": "MIC90", "setting": "[7]", "result": "~0.1", "unit": "µg/mL"}]}
{"smiles": "O=C(/C=C/c1ccccc1)Nc1cccc(/C=C/C(=O)c2ccccc2)c1", "note": "[INF 240]", "values": [{"measurement": "FIC index", "setting": "[8]", "result": 0.16}, {"measurement": "Selectivity Index (Toxicity HeLa/Effectivity)", "setting": "[9]", "result": 2.5}, {"measurement": "IC50", "setting": "[9]; 3 days, MTS", "result": 2, "unit": "µg/mL"}, {"measurement": "Frequency of emergence of variants resistant to two fold the MIC of ciprofloxacin, Spontaneous", "setting": "[10]", "result": "<5 × 10^−11"}, {"measurement": "Frequency of emergence of variants resistant to two fold the MIC of ciprofloxacin, Mutagenized", "setting": "[10]", "result": "<2.5 × 10^−10"}, {"measurement": "Fold inhibition of emergence of resistance", "setting": "[10]", "result": ">50"}, {"measurement": "FIC index NA", "setting": "[11]", "result": 0.12}, {"measurement": "IC50", "setting": "[12]", "result": 0.8, "unit": "µg/mL"}, {"measurement": "FIC index SA1199B", "setting": "[13]", "result": 0.28}]}
{"smiles": "CCn1cc(C(=O)O)c(=O)c2cc(F)c(N3CCNCC3)nc21", "note": "[enoxacin]", "values": [{"measurement": "in vitro minimum inhibitory concentrations (MICs)", "setting": "[14]", "result": "≤ 2.0", "unit": "µg/mL"}]}
{"smiles": "O=[N+]([O-])c1ccc2[nH]c(-c3ccccc3)cc2c1", "note": "[INF 55]", "values": [{"measurement": "FIC index", "setting": "[8]", "result": 0.08}, {"measurement": "Selectivity Index (Toxicity HeLa/Effectivity)", "setting": "[9]", "result": 27}, {"measurement": "IC50", "setting": "[9]; 3 days, MTS", "result": 40, "unit": "µg/mL"}, {"measurement": "Frequency of emergence of variants resistant to two fold the MIC of ciprofloxacin, Spontaneous", "setting": "[10]", "result": "<5 × 10^−11"}, {"measurement": "Frequency of emergence of variants resistant to two fold the MIC of ciprofloxacin, Mutagenized", "setting": "[10]", "result": "<2.5 × 10^−10"}, {"measurement": "Fold inhibition of emergence of resistance", "setting": "[10]", "result": ">50"}, {"measurement": "FIC index NA", "setting": "[11]", "result": 0.25}, {"measurement": "IC50", "setting": "[15]; [16]", "result": 5, "unit": "µg/mL"}, {"measurement": "IC50", "setting": "[12]", "result": 1.5, "unit": "µg/mL"}, {"measurement": "FIC index SA1199B", "setting": "[13]", "result": 0.25}]}
{"smiles": "CC[n+]1c(-c2ccccc2)c2cc(N)ccc2c2ccc(N)cc21", "note": "[ethidium, ethidium bromide, reference compound]", "values": [{"measurement": "MIC", "setting": "[8]; Bacillus subtilis, read-out: MIC for the strain NA", "result": 40, "unit": "µg/mL"}]}
{"smiles": "O=c1nc(SCc2ccccc2)[nH]c2c1[C@H](c1ccccc1)c1ccccc1O2", "note": "[INF 392]", "values": [{"measurement": "FIC index", "setting": "[8]", "result": 0.14}, {"measurement": "Selectivity Index (Toxicity HeLa/Effectivity)", "setting": "[9]", "result": 450}, {"measurement": "IC50", "setting": "[9]", "result": 45, "unit": "µg/mL"}, {"measurement": "Frequency of emergence of variants resistant to two fold the MIC of ciprofloxacin, Spontaneous", "setting": "[10]", "result": "5 × 10^−11"}, {"measurement": "Frequency of emergence of variants resistant to two fold the MIC of ciprofloxacin, Mutagenized", "setting": "[10]", "result": "1 × 10^−9"}, {"measurement": "Fold inhibition of emergence of resistance", "setting": "[10]", "result": 25}, {"measurement": "FIC index NA", "setting": "[11]", "result": 0.28}, {"measurement": "IC50", "setting": "[15]", "result": 2.5, "unit": "µg/mL"}, {"measurement": "IC50", "setting": "[12]", "result": 0.1, "unit": "µg/mL"}, {"measurement": "FIC index SA1199B", "setting": "[13]", "result": 0.15}]}
{"smiles": "CC1(C)CC(=O)C2=C(C1)c1c(ccc3ccccc13)NC2c1cc(Br)ccc1O", "note": "(stereo not shown) [INF 277]", "values": [{"measurement": "FIC index", "setting": "[8]", "result": 0.09}, {"measurement": "Selectivity Index (Toxicity HeLa/Effectivity)", "setting": "[9]", "result": 6}, {"measurement": "IC50", "setting": "[9]", "result": 5, "unit": "µg/mL"}, {"measurement": "Frequency of emergence of variants resistant to two fold the MIC of ciprofloxacin, Spontaneous", "setting": "[10]", "result": "<5 × 10^−11"}, {"measurement": "Frequency of emergence of variants resistant to two fold the MIC of ciprofloxacin, Mutagenized", "setting": "[10]", "result": "<2.5 × 10^−10"}, {"measurement": "Fold inhibition of emergence of resistance", "setting": "[10]", "result": ">50"}, {"measurement": "FIC index NA", "setting": "[11]", "result": 0.15}, {"measurement": "IC50", "setting": "[15]", "result": 5, "unit": "µg/mL"}, {"measurement": "IC50", "setting": "[12]", "result": 0.8, "unit": "µg/mL"}, {"measurement": "FIC index SA1199B", "setting": "[13]", "result": 0.28}]}
{"smiles": "COc1ccccc1NC(=O)Nc1ccc2ccccc2c1", "note": "[INF 271]", "values": [{"measurement": "FIC index", "setting": "[8]", "result": 0.07}, {"measurement": "Selectivity Index (Toxicity HeLa/Effectivity)", "setting": "[9]", "result": 12}, {"measurement": "IC50", "setting": "[9]; 3 days, MTS", "result": 18, "unit": "µg/mL"}, {"measurement": "Frequency of emergence of variants resistant to two fold the MIC of ciprofloxacin, Spontaneous", "setting": "[10]", "result": "<5 × 10^−11"}, {"measurement": "Frequency of emergence of variants resistant to two fold the MIC of ciprofloxacin, Mutagenized", "setting": "[10]", "result": "<2.5 × 10^−10"}, {"measurement": "Fold inhibition of emergence of resistance", "setting": "[10]", "result": ">50"}, {"measurement": "FIC index NA", "setting": "[11]", "result": 0.12}, {"measurement": "IC50", "setting": "[15]; [16]", "result": 2.5, "unit": "µg/mL"}, {"measurement": "IC50", "setting": "[12]", "result": 1.5, "unit": "µg/mL"}, {"measurement": "FIC index SA1199B", "setting": "[13]", "result": 0.18}]}
